In patent publication US6355799B1, “Substituted benzene compounds, process for their preparation, and herbicidal and defoliant compositions containing them” (ISK Americas Incorporated, priority 1997, dated 2002):

Key:
Type in all cases: in vivo
[1] = test system: redroot pigweed (Amaranthus retroflexus, AMARE); assay: Pre-emerge test, greenhouse herbicide activity screening; conditions: rating scale 0-100, 14 days after application
Outline: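 Compounds in acetone were track-sprayed at 187 l/ha, 15–1000 g ai/ha, onto sandy loam pots. Pre-emerge seeds were sown one day before spraying, with surface watering afterwards. Post-emerge plants were at the 2–3 leaf stage and sprayed with 0.25% v/v non-ionic surfactant. Injury was rated 0–100 at 14 days.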

[2] = test system: field corn (Zea mays L., var. Dekalb 535, CORN); assay: Pre-emerge test, crop safety; conditions: 63 g ai/ha; rating scale 0-100, 14 days after application
Outline: (§1)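 Fourteen days after spraying, crop and weed injury was graded visually from 0, no effect, to 100, every plant dead. Test substances were dissolved in acetone and applied at 15–1000 g ai/ha with a flat-fan nozzle. Application was either pre-emergence, one day after sowing, or post-emergence at the 2–3 leaf stage.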

[3] = test system: upland rice (Oryza sp., var. Tebonnet, RICE); assay: Pre-emerge test, crop safety; conditions: rating scale 0-100, 14 days after application
Outline: as §1

[4] = test system: velvetleaf (Abutilon theophrasti, ABUTH); assay: Pre-emerge test, greenhouse herbicide activity screening; conditions: rating scale 0-100, 14 days after application
Outline: (§2)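 Rating: 0–100 visual injury, 14 DAA. Application: acetone, 187 l/ha, 15–1000 g ai/ha, flat-fan track sprayer with nozzle 40–45 cm above soil or canopy. Post-emerge runs used 0.25% v/v surfactant on 2–3 leaf plants.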

[5] = test system: green foxtail (Setaria viridis, SETVI); assay: as above; conditions: rating scale 0-100, 14 days after application
Outline: as §2

[6] = test system: barnyardgrass (Echinochloa crus-galli, ECHCG); assay: as above; conditions: rating scale 0-100, 14 days after application
Outline: as §2

[7] = test system: lambsquarters (Chenopodium album, CHEAL); assay: as above; conditions: rating scale 0-100, 14 days after application
Outline: as §2

[8] = test system: ivyleaf morningglory (Ipomoea hederacea, IPOHE); assay: as above; conditions: rating scale 0-100, 14 days after application
Outline: as §2

[9] = test system: sicklepod (Cassia obtusifolia, CASOB); assay: as above; conditions: rating scale 0-100, 14 days after application
Outline: as §2

[10] = test system: large crabgrass (Digitaria sanguinalis, DIGSA); assay: as above; conditions: rating scale 0-100, 14 days after application
Outline: as §2

[11] = test system: johnsongrass (Sorghum halepense, SORHA); assay: as above; conditions: rating scale 0-100, 14 days after application
Outline: as §2

[12] = test system: field corn (Zea mays L., var. Dekalb 535, CORN); assay: Post-emerge test, crop safety; conditions: rating scale 0-100 (0 no damage, 100 complete death), 14 days after application
Outline: (§3)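 Plants grown in 10 cm pots of sandy loam mix received acetone-dissolved compounds through a moving flat-fan nozzle. Doses ranged from 15 to 1000 g ai/ha. Pre-emerge pots were seeded one day earlier, post-emerge pots 8–21 days earlier. Fourteen days on, each pot was graded 0–100 for damage.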

[13] = test system: upland rice (Oryza sp., var. Tebonnet, RICE); assay: Post-emerge test, crop safety; conditions: rating scale 0-100 (0 no damage, 100 complete death), 14 days after application
Outline: as §3

[14] = test system: velvetleaf (Abutilon theophrasti, ABUTH); assay: Post-emerge test, greenhouse herbicide activity screening; conditions: rating scale 0-100 (0 no damage, 100 complete death), 14 days after application
Outline: (§4)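 Each test used a mechanized track sprayer delivering 187 l/ha of acetone solution at 15–1000 g ai/ha. Post-emerge foliage at 2–3 leaves was treated with added 0.25% v/v non-ionic surfactant and bottom-watered only. Injury was assessed on day 14, where 100 means total kill.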

[15] = test system: green foxtail (Setaria viridis, SETVI); assay: as above; conditions: rating scale 0-100 (0 no damage, 100 complete death), 14 days after application
Outline: as §4

[16] = test system: common ragweed (Ambrosia artemisizfolia L., AMBEL); assay: as above; conditions: rating scale 0-100 (0 no damage, 100 complete death), 14 days after application
Outline: as §4

[17] = test system: barnyardgrass (Echinochloa crus-galli, ECHCG); assay: as above; conditions: rating scale 0-100 (0 no damage, 100 complete death), 14 days after application
Outline: as §4

[18] = test system: lambsquarters (Chenopodium album, CHEAL); assay: as above; conditions: rating scale 0-100 (0 no damage, 100 complete death), 14 days after application
Outline: as §4

[19] = test system: ivyleaf morningglory (Ipomoea hederacea, IPOHE); assay: as above; conditions: rating scale 0-100 (0 no damage, 100 complete death), 14 days after application
Outline: as §4

[20] = test system: sicklepod (Cassia obtusifolia, CASOB); assay: as above; conditions: rating scale 0-100 (0 no damage, 100 complete death), 14 days after application
Outline: as §4

[21] = test system: redroot pigweed (Amaranthus retroflexus, AMARE); assay: as above; conditions: rating scale 0-100 (0 no damage, 100 complete death), 14 days after application
Outline: as §4

[22] = test system: large crabgrass (Digitaria sanguinalis, DIGSA); assay: as above; conditions: rating scale 0-100 (0 no damage, 100 complete death), 14 days after application
Outline: as §4

[23] = test system: johnsongrass (Sorghum halepense, SORHA); assay: as above; conditions: rating scale 0-100 (0 no damage, 100 complete death), 14 days after application
Outline: as §4

## COCCOC(=O)C(Cl)Cc1c(OC)c(Cl)cc(F)c1-n1c(=O)cc(C(F)(F)F)n(C)c1=O (stereo not drawn) [14-25]
[1]; 63 g ai/ha
  Pre-emerge herbicidal activity, phytotoxicity rating AMARE: 100
[1]; 250 g ai/ha
  Pre-emerge herbicidal activity, phytotoxicity rating AMARE: 100
[2]
  Pre-emerge phytotoxicity rating, crop damage CORN: 95
[3]; 63 g ai/ha
  Pre-emerge phytotoxicity rating, crop damage RICE: 90
[3]; 250 g ai/ha
  Pre-emerge phytotoxicity rating, crop damage RICE: 100
[4]; 63 g ai/ha
  Pre-emerge herbicidal activity, phytotoxicity rating ABUTH: 100
[4]; 250 g ai/ha
  Pre-emerge herbicidal activity, phytotoxicity rating ABUTH: 100
[5]; 63 g ai/ha
  Pre-emerge herbicidal activity, phytotoxicity rating SETVI: 90
[5]; 250 g ai/ha
  Pre-emerge herbicidal activity, phytotoxicity rating SETVI: 100
[6]; 63 g ai/ha
  Pre-emerge herbicidal activity, phytotoxicity rating ECHCG: 80
[6]; 250 g ai/ha
  Pre-emerge herbicidal activity, phytotoxicity rating ECHCG: 100
[7]; 63 g ai/ha
  Pre-emerge herbicidal activity, phytotoxicity rating CHEAL: 100
[7]; 250 g ai/ha
  Pre-emerge herbicidal activity, phytotoxicity rating CHEAL: 100
[8]; 63 g ai/ha
  Pre-emerge herbicidal activity, phytotoxicity rating IPOHE: 70
[8]; 250 g ai/ha
  Pre-emerge herbicidal activity, phytotoxicity rating IPOHE: 100
[9]; 63 g ai/ha
  Pre-emerge herbicidal activity, phytotoxicity rating CASOB: 50
[9]; 250 g ai/ha
  Pre-emerge herbicidal activity, phytotoxicity rating CASOB: 100
[10]; 63 g ai/ha
  Pre-emerge herbicidal activity, phytotoxicity rating DIGSA: 70
[10]; 250 g ai/ha
  Pre-emerge herbicidal activity, phytotoxicity rating DIGSA: 100
[11]; 63 g ai/ha
  Pre-emerge herbicidal activity, phytotoxicity rating SORHA: 80
[11]; 250 g ai/ha
  Pre-emerge herbicidal activity, phytotoxicity rating SORHA: 100
[12]; Rate 63 g ai/ha
  Post-emerge phytotoxicity rating CORN (crop damage): 100
[12]; Rate 250 g ai/ha
  Post-emerge phytotoxicity rating CORN (crop damage): 100
[13]; Rate 63 g ai/ha
  Post-emerge phytotoxicity rating RICE (crop damage): 10
[13]; Rate 250 g ai/ha
  Post-emerge phytotoxicity rating RICE (crop damage): 50
[14]; Rate 63 g ai/ha
  Post-emerge Herbicidal Activity, phytotoxicity rating ABUTH: 100
[14]; Rate 250 g ai/ha
  Post-emerge Herbicidal Activity, phytotoxicity rating ABUTH: 100
[15]; Rate 63 g ai/ha
  Post-emerge Herbicidal Activity, phytotoxicity rating SETVI: 50
[15]; Rate 250 g ai/ha
  Post-emerge Herbicidal Activity, phytotoxicity rating SETVI: 80
[16]; Rate 63 g ai/ha
  Post-emerge Herbicidal Activity, phytotoxicity rating AMBEL: 100
[16]; Rate 250 g ai/ha
  Post-emerge Herbicidal Activity, phytotoxicity rating AMBEL: 100
[17]; Rate 63 g ai/ha
  Post-emerge Herbicidal Activity, phytotoxicity rating ECHCG: 100
[17]; Rate 250 g ai/ha
  Post-emerge Herbicidal Activity, phytotoxicity rating ECHCG: 100
[18]; Rate 63 g ai/ha
  Post-emerge Herbicidal Activity, phytotoxicity rating CHEAL: 80
[18]; Rate 250 g ai/ha
  Post-emerge Herbicidal Activity, phytotoxicity rating CHEAL: 100
[19]; Rate 63 g ai/ha
  Post-emerge Herbicidal Activity, phytotoxicity rating IPOHE: 70
[19]; Rate 250 g ai/ha
  Post-emerge Herbicidal Activity, phytotoxicity rating IPOHE: 100
[20]; Rate 63 g ai/ha
  Post-emerge Herbicidal Activity, phytotoxicity rating CASOB: 50
[20]; Rate 250 g ai/ha
  Post-emerge Herbicidal Activity, phytotoxicity rating CASOB: 80
[21]; Rate 63 g ai/ha
  Post-emerge Herbicidal Activity, phytotoxicity rating AMARE: 95
[21]; Rate 250 g ai/ha
  Post-emerge Herbicidal Activity, phytotoxicity rating AMARE: 100
[22]; Rate 63 g ai/ha
  Post-emerge Herbicidal Activity, phytotoxicity rating DIGSA: 95
[22]; Rate 250 g ai/ha
  Post-emerge Herbicidal Activity, phytotoxicity rating DIGSA: 100
[23]; Rate 63 g ai/ha
  Post-emerge Herbicidal Activity, phytotoxicity rating SORHA: 40
[23]; Rate 250 g ai/ha
  Post-emerge Herbicidal Activity, phytotoxicity rating SORHA: 95
